Reference: patent publication US20150105252A1, “SUBSTITUTED PYRAZOLES AS HERBICIDES” (E I DU PONT DE NEMOURS AND COMPANY, priority 2013, published 2015)

Assays:
Experiment in all cases: Test C postemergence
ryegrass, Italian = assay type: in vivo, Lolium multiflorum; details: postemergence
How it was run: (§1)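 Pre- and postemergence greenhouse screen; vehicle was a non-phytotoxic solvent mix with surfactant. Preemergence: treatment applied right after sowing into loam and sand. Postemergence: treated at 1–4 leaves. Visual rating at 13–15 days, 100 = complete control.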

nutsedge, yellow = assay type: in vivo, Cyperus esculentus; details: for Plant response rating (scale of 0 to 100 where 0 is no effect and 100 is complete control), Nutsedge, Yellow: Postemergence, 31 g ai/ha, visually evaluated after 13 to 15 days; for Nutsedge, Yellow plant response rating / Plant response rating, Nutsedge, Yellow: postemergence; for Nutsedge, Yellow plant response rating: 62 g ai/ha, scale 0 to 100
How it was run: as §1

chickweed = assay type: in vivo, Stellaria media; details: for Plant response rating (scale of 0 to 100 where 0 is no effect and 100 is complete control), Chickweed: Postemergence, 31 g ai/ha, visually evaluated after 13 to 15 days; for Chickweed plant response rating / Plant response rating, Chickweed: postemergence; for Chickweed plant response rating: 62 g ai/ha, scale 0 to 100
How it was run: as §1

pigweed = assay type: in vivo, Amaranthus retroflexus; details: postemergence; for Pigweed plant response rating: 62 g ai/ha, scale 0 to 100
How it was run: as §1

velvetleaf = assay type: in vivo, Abutilon theophrasti; details: postemergence; for Plant response rating, Velvetleaf: 250 g ai/ha, scale 0 to 100 (0 no effect, 100 complete control)
How it was run: as §1

crabgrass, large = assay type: in vivo, Digitaria sanguinalis; details: for Plant response rating (scale of 0 to 100 where 0 is no effect and 100 is complete control), Crabgrass, Large: Postemergence, 31 g ai/ha, visually evaluated after 13 to 15 days; for Crabgrass, Large plant response rating / Plant response rating, Crabgrass, Large: postemergence; for Crabgrass, Large plant response rating: 62 g ai/ha, scale 0 to 100
How it was run: as §1

kochia = assay type: in vivo, Kochia scoparia; details: for Plant response rating (scale of 0 to 100 where 0 is no effect and 100 is complete control), Kochia: Postemergence, 31 g ai/ha, visually evaluated after 13 to 15 days; for Kochia plant response rating / Plant response rating, Kochia: postemergence; for Kochia plant response rating: 62 g ai/ha, scale 0 to 100
How it was run: as §1

galium = assay type: in vivo, Galium aparine; details: for Plant response rating (scale of 0 to 100 where 0 is no effect and 100 is complete control), Galium: Postemergence, 31 g ai/ha, visually evaluated after 13 to 15 days; for Galium plant response rating / Plant response rating, Galium: postemergence; for Galium plant response rating: 62 g ai/ha, scale 0 to 100
How it was run: as §1

johnsongrass = assay type: in vivo, Sorghum halepense; details: for Plant response rating (scale of 0 to 100 where 0 is no effect and 100 is complete control), Johnsongrass: Postemergence, 31 g ai/ha, visually evaluated after 13 to 15 days; for Johnsongrass plant response rating / Plant response rating, Johnsongrass: postemergence; for Johnsongrass plant response rating: 62 g ai/ha, scale 0 to 100
How it was run: as §1

foxtail, giant = assay type: in vivo, Setaria faberii; details: for Plant response rating (scale of 0 to 100 where 0 is no effect and 100 is complete control), Foxtail, Giant: Postemergence, 31 g ai/ha, visually evaluated after 13 to 15 days; for Foxtail, Giant plant response rating / Plant response rating, Foxtail, Giant: postemergence; for Foxtail, Giant plant response rating: 62 g ai/ha, scale 0 to 100
How it was run: as §1

corn = assay type: in vivo, Zea mays; details: for Plant response rating (scale of 0 to 100 where 0 is no effect and 100 is complete control), Corn: Postemergence, 31 g ai/ha, visually evaluated after 13 to 15 days; for Corn plant response rating / Plant response rating, Corn: postemergence; for Corn plant response rating: 62 g ai/ha, scale 0 to 100
How it was run: as §1

waterhemp = assay type: in vivo, Amaranthus rudis; details: postemergence, 250 g ai/ha; scale 0 to 100 (0 no effect, 100 complete control)
How it was run: as §1

ragweed = assay type: in vivo, Ambrosia elation; details: postemergence
How it was run: as §1

morningglory = assay type: in vivo, Ipomoea coccinea; details: for Plant response rating (scale of 0 to 100 where 0 is no effect and 100 is complete control), Morningglory: Postemergence, 31 g ai/ha, visually evaluated after 13 to 15 days; for Morningglory plant response rating / Plant response rating, Morningglory: postemergence; for Morningglory plant response rating: 62 g ai/ha, scale 0 to 100
How it was run: as §1

blackgrass = assay type: in vivo, Alopecurus myosuroides; details: for Plant response rating (scale of 0 to 100 where 0 is no effect and 100 is complete control), Blackgrass: Postemergence, 31 g ai/ha, visually evaluated after 13 to 15 days; for Blackgrass plant response rating / Plant response rating, Blackgrass: postemergence; for Blackgrass plant response rating: 62 g ai/ha, scale 0 to 100
How it was run: as §1

oilseed rape = assay type: in vivo, Brassica napus; details: postemergence; for Oilseed Rape plant response rating: 62 g ai/ha, scale 0 to 100
How it was run: as §1

oat, wild = assay type: in vivo, Avena fatua; details: for Plant response rating (scale of 0 to 100 where 0 is no effect and 100 is complete control), Oat, Wild: Postemergence, 31 g ai/ha, visually evaluated after 13 to 15 days; for Oat, Wild plant response rating / Plant response rating, Oat, Wild: postemergence; for Oat, Wild plant response rating: 62 g ai/ha, scale 0 to 100
How it was run: as §1

soybean = assay type: in vivo, Glycine max; details: postemergence; for Plant response rating, Soybean: 250 g ai/ha, scale 0 to 100 (0 no effect, 100 complete control); for Soybean plant response rating: 125 g ai/ha, scale 0 to 100, 0 no effect, 100 complete control
How it was run: as §1

[1] = 250 g ai/ha, scale 0 to 100 (0 no effect, 100 complete control)
[2] = 125 g ai/ha, scale 0 to 100, 0 no effect, 100 complete control

CCOc1cc(C(=O)NC(C)C)nn1Cc1ccnc(C(F)(F)F)c1 [Compound 188]
Plant response rating, Ryegrass, Italian (ryegrass, Italian; [1]): 35 | Plant response rating, Ryegrass, Italian (ryegrass, Italian; [2]): 20 | Plant response rating (scale of 0 to 100 where 0 is no effect and 100 is complete control), Nutsedge, Yellow (nutsedge, yellow): 5 | Nutsedge, Yellow plant response rating (nutsedge, yellow): 35 | Plant response rating, Nutsedge, Yellow (nutsedge, yellow; [1]): 10 | Plant response rating, Nutsedge, Yellow (nutsedge, yellow; [2]): 5 | Plant response rating (scale of 0 to 100 where 0 is no effect and 100 is complete control), Chickweed (chickweed): 70 | Chickweed plant response rating (chickweed): 85 | Plant response rating, Chickweed (chickweed; [1]): 98 | Plant response rating, Chickweed (chickweed; [2]): 80 | Pigweed plant response rating (pigweed): 75 | Plant response rating, Pigweed (pigweed; [1]): 85 | Plant response rating, Pigweed (pigweed; [2]): 80 | Plant response rating, Velvetleaf (velvetleaf): 80 | Velvetleaf plant response rating (velvetleaf; scale 0 to 100): 60 | Plant response rating (scale of 0 to 100 where 0 is no effect and 100 is complete control), Crabgrass, Large (crabgrass, large): 5 | Crabgrass, Large plant response rating (crabgrass, large): 55 | Plant response rating, Crabgrass, Large (crabgrass, large; [1]): 95 | Plant response rating, Crabgrass, Large (crabgrass, large; [2]): 70 | Plant response rating (scale of 0 to 100 where 0 is no effect and 100 is complete control), Kochia (kochia): 90 | Kochia plant response rating (kochia): 90 | Plant response rating, Kochia (kochia; [1]): 90 | Plant response rating, Kochia (kochia; [2]): 90 | Plant response rating (scale of 0 to 100 where 0 is no effect and 100 is complete control), Galium (galium): 80 | Galium plant response rating (galium): 80 | Plant response rating, Galium (galium; [1]): 90 | Plant response rating, Galium (galium; [2]): 90 | Plant response rating (scale of 0 to 100 where 0 is no effect and 100 is complete control), Johnsongrass (johnsongrass): 0 | Johnsongrass plant response rating (johnsongrass): 0 | Plant response rating, Johnsongrass (johnsongrass; [1]): 65 | Plant response rating, Johnsongrass (johnsongrass; [2]): 50 | Plant response rating (scale of 0 to 100 where 0 is no effect and 100 is complete control), Foxtail, Giant (foxtail, giant): 5 | Foxtail, Giant plant response rating (foxtail, giant): 40 | Plant response rating, Foxtail, Giant (foxtail, giant; [1]): 90 | Plant response rating, Foxtail, Giant (foxtail, giant; [2]): 60 | Plant response rating (scale of 0 to 100 where 0 is no effect and 100 is complete control), Corn (corn): 5 | Corn plant response rating (corn): 55 | Plant response rating, Corn (corn; [1]): 60 | Plant response rating, Corn (corn; [2]): 20 | Plant response rating, Waterhemp (waterhemp): 95 | Plant response rating, Ragweed (ragweed; [1]): 90 | Plant response rating, Ragweed (ragweed; [2]): 85 | Plant response rating (scale of 0 to 100 where 0 is no effect and 100 is complete control), Morningglory (morningglory): 85 | Morningglory plant response rating (morningglory): 90 | Plant response rating, Morningglory (morningglory; [1]): 98 | Plant response rating, Morningglory (morningglory; [2]): 98 | Plant response rating (scale of 0 to 100 where 0 is no effect and 100 is complete control), Blackgrass (blackgrass): 5 | Blackgrass plant response rating (blackgrass): 5 | Plant response rating, Blackgrass (blackgrass; [1]): 70 | Plant response rating, Blackgrass (blackgrass; [2]): 40 | Oilseed Rape plant response rating (oilseed rape): 60 | Plant response rating, Oilseed Rape (oilseed rape; [1]): 90 | Plant response rating, Oilseed Rape (oilseed rape; [2]): 70 | Plant response rating (scale of 0 to 100 where 0 is no effect and 100 is complete control), Oat, Wild (oat, wild): 15 | Oat, Wild plant response rating (oat, wild): 10 | Plant response rating, Oat, Wild (oat, wild; [1]): 85 | Plant response rating, Oat, Wild (oat, wild; [2]): 60 | Plant response rating, Soybean (soybean): 98 | Soybean plant response rating (soybean): 95

CCOc1cc(C(=O)NC2CC2)nn1Cc1ccnc(C(F)(F)F)c1 [Compound 189]
Plant response rating, Ryegrass, Italian (ryegrass, Italian; [1]): 40 | Plant response rating, Ryegrass, Italian (ryegrass, Italian; [2]): 5 | Plant response rating (scale of 0 to 100 where 0 is no effect and 100 is complete control), Nutsedge, Yellow (nutsedge, yellow): 5 | Nutsedge, Yellow plant response rating (nutsedge, yellow): 5 | Plant response rating, Nutsedge, Yellow (nutsedge, yellow; [1]): 20 | Plant response rating, Nutsedge, Yellow (nutsedge, yellow; [2]): 5 | Plant response rating (scale of 0 to 100 where 0 is no effect and 100 is complete control), Chickweed (chickweed): 80 | Chickweed plant response rating (chickweed): 80 | Plant response rating, Chickweed (chickweed; [1]): 90 | Plant response rating, Chickweed (chickweed; [2]): 85 | Pigweed plant response rating (pigweed): 75 | Plant response rating, Pigweed (pigweed; [1]): 90 | Plant response rating, Pigweed (pigweed; [2]): 85 | Plant response rating, Velvetleaf (velvetleaf): 75 | Plant response rating (scale of 0 to 100 where 0 is no effect and 100 is complete control), Crabgrass, Large (crabgrass, large): 5 | Crabgrass, Large plant response rating (crabgrass, large): 5 | Plant response rating, Crabgrass, Large (crabgrass, large; [1]): 90 | Plant response rating, Crabgrass, Large (crabgrass, large; [2]): 65 | Plant response rating (scale of 0 to 100 where 0 is no effect and 100 is complete control), Kochia (kochia): 85 | Kochia plant response rating (kochia): 90 | Plant response rating, Kochia (kochia; [1]): 90 | Plant response rating, Kochia (kochia; [2]): 90 | Plant response rating (scale of 0 to 100 where 0 is no effect and 100 is complete control), Galium (galium): 80 | Galium plant response rating (galium): 80 | Plant response rating, Galium (galium; [1]): 90 | Plant response rating, Galium (galium; [2]): 90 | Plant response rating (scale of 0 to 100 where 0 is no effect and 100 is complete control), Johnsongrass (johnsongrass): 0 | Johnsongrass plant response rating (johnsongrass): 15 | Plant response rating, Johnsongrass (johnsongrass; [1]): 35 | Plant response rating, Johnsongrass (johnsongrass; [2]): 5 | Plant response rating (scale of 0 to 100 where 0 is no effect and 100 is complete control), Foxtail, Giant (foxtail, giant): 10 | Foxtail, Giant plant response rating (foxtail, giant): 10 | Plant response rating, Foxtail, Giant (foxtail, giant; [1]): 75 | Plant response rating, Foxtail, Giant (foxtail, giant; [2]): 25 | Plant response rating (scale of 0 to 100 where 0 is no effect and 100 is complete control), Corn (corn): 5 | Corn plant response rating (corn): 10 | Plant response rating, Corn (corn; [1]): 60 | Plant response rating, Corn (corn; [2]): 10 | Plant response rating, Waterhemp (waterhemp): 90 | Plant response rating, Ragweed (ragweed; [1]): 90 | Plant response rating, Ragweed (ragweed; [2]): 75 | Plant response rating (scale of 0 to 100 where 0 is no effect and 100 is complete control), Morningglory (morningglory): 75 | Morningglory plant response rating (morningglory): 80 | Plant response rating, Morningglory (morningglory; [1]): 98 | Plant response rating, Morningglory (morningglory; [2]): 95 | Plant response rating (scale of 0 to 100 where 0 is no effect and 100 is complete control), Blackgrass (blackgrass): 5 | Blackgrass plant response rating (blackgrass): 5 | Plant response rating, Blackgrass (blackgrass; [1]): 50 | Plant response rating, Blackgrass (blackgrass; [2]): 10 | Oilseed Rape plant response rating (oilseed rape): 60 | Plant response rating, Oilseed Rape (oilseed rape; [1]): 90 | Plant response rating, Oilseed Rape (oilseed rape; [2]): 65 | Plant response rating (scale of 0 to 100 where 0 is no effect and 100 is complete control), Oat, Wild (oat, wild): 10 | Oat, Wild plant response rating (oat, wild): 15 | Plant response rating, Oat, Wild (oat, wild; [1]): 60 | Plant response rating, Oat, Wild (oat, wild; [2]): 30 | Plant response rating, Soybean (soybean): 95 | Soybean plant response rating (soybean): 95
